Results: PubChem BioAssay (NCI)
Values joined by “and” are separate entries in the source; they are usually repeats but may differ in a detail not shown here. Equal values may be shown once.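 Step 1: Grow cells in 96-well plates. Step 2: Expose to compound for 48 hours at 5 concentrations. Step 3: Interpolate endpoints linearly; if unreached, use highest concentration. GI50 = concentration required for 50% inhibition of growth. TGI is the concentration that stops growth completely.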

Experiments:
Experiment in all cases: DTP human tumour cell line panel, 48 h
UO-31 renal = tested on: UO-31 renal
T-47D breast = tested on: T-47D breast
CCRF-CEM leukemia = tested on: CCRF-CEM leukemia
K-562 leukemia = tested on: K-562 leukemia
HS 578T breast = tested on: HS 578T breast
DU-145 prostate = tested on: DU-145 prostate
SK-MEL-28 melanoma = tested on: SK-MEL-28 melanoma
SR leukemia = tested on: SR leukemia
UACC-62 melanoma = tested on: UACC-62 melanoma
TK-10 renal = tested on: TK-10 renal

COc1ccc(-c2nc(N3CCOCC3)c3sc(CN(C)c4ncc(C(=O)NO)cn4)cc3n2)cn1
GI50 (UO-31 renal): < 0.01 µM
TGI (UO-31 renal): 0.0705 µM
GI50 (T-47D breast): < 0.01 µM
TGI (T-47D breast): 0.0332 µM
GI50 (CCRF-CEM leukemia): < 0.01 µM
TGI (CCRF-CEM leukemia): 1.53 µM
GI50 (K-562 leukemia): < 0.01 µM
TGI (K-562 leukemia): > 100 µM
GI50 (HS 578T breast): < 0.0122 µM
TGI (HS 578T breast): 0.155 µM
GI50 (DU-145 prostate): < 0.01 µM
TGI (DU-145 prostate): 0.141 µM
GI50 (SK-MEL-28 melanoma): 0.0129 µM
TGI (SK-MEL-28 melanoma): 0.136 µM
GI50 (SR leukemia): < 0.01 µM
TGI (SR leukemia): 0.234 µM

O=C(NC1CCCCC1)NS(=O)(=O)c1ccc(-n2nc3c(c2-c2ccc(Cl)cc2)Cc2ccccc2-3)cc1
GI50 (UO-31 renal): 3.64 µM
TGI (UO-31 renal): 8.67 µM
GI50 (T-47D breast): 49.8 µM
TGI (T-47D breast): > 100 µM
GI50 (UACC-62 melanoma): 10.9 µM
TGI (UACC-62 melanoma): 24 µM
GI50 (CCRF-CEM leukemia): 1.13 µM
TGI (CCRF-CEM leukemia): 4.36 µM
GI50 (K-562 leukemia): 2.15 µM
TGI (K-562 leukemia): 5.89 µM
GI50 (HS 578T breast): 5.03 µM
TGI (HS 578T breast): 39.2 µM
GI50 (DU-145 prostate): 6.39 µM
TGI (DU-145 prostate): 20.3 µM
GI50 (SK-MEL-28 melanoma): 21.9 µM
TGI (SK-MEL-28 melanoma): 50.5 µM
GI50 (TK-10 renal): 13.3 µM
TGI (TK-10 renal): 26.9 µM

CCCCCCCCCCCCCCCCCC(=O)OCC(C[As](=O)(O)O)OC(=O)CCCCCCCCCCCCCCCCC (centres undefined)
TGI (UO-31 renal): > 100 µM
TGI (UACC-62 melanoma): > 100 µM
TGI (CCRF-CEM leukemia): > 100 µM
TGI (K-562 leukemia): > 100 µM
TGI (SK-MEL-28 melanoma): > 100 µM
TGI (TK-10 renal): > 100 µM
TGI (SR leukemia): 38.9 µM

Oc1ccc(-c2cn3cc(Cl)sc3n2)cc1
GI50 (UO-31 renal): > 100 µM
TGI (UO-31 renal): > 100 µM
GI50 (UACC-62 melanoma): 5.36 µM
TGI (UACC-62 melanoma): 41.6 µM
GI50 (CCRF-CEM leukemia): 12.1 µM
TGI (CCRF-CEM leukemia): 39.8 µM
GI50 (K-562 leukemia): 36.7 µM
TGI (K-562 leukemia): > 100 µM
GI50 (HS 578T breast): > 100 µM
TGI (HS 578T breast): > 100 µM
GI50 (TK-10 renal): 40.4 µM
TGI (TK-10 renal): 84.9 µM
GI50 (SR leukemia): 4.51 µM
TGI (SR leukemia): 18.8 µM

O=C1CC[C@H](c2ccc(O)c3c2C(=O)[C@@H]2O[C@@H]2C3=O)c2cccc(O)c21
GI50 (UO-31 renal): 1.57 µM
TGI (UO-31 renal): 3.16 µM
GI50 (T-47D breast): 1.27 µM
TGI (T-47D breast): 3.81 µM
GI50 (UACC-62 melanoma): 1.75 µM
TGI (UACC-62 melanoma): 3.73 µM
GI50 (CCRF-CEM leukemia): 1.05 µM
TGI (CCRF-CEM leukemia): 5.76 µM
GI50 (K-562 leukemia): 2.36 µM
TGI (K-562 leukemia): 10.4 µM
GI50 (HS 578T breast): 3.78 µM
TGI (HS 578T breast): 97.2 µM
GI50 (SK-MEL-28 melanoma): 1.83 µM
TGI (SK-MEL-28 melanoma): 3.62 µM
GI50 (TK-10 renal): 1.49 µM
TGI (TK-10 renal): 2.93 µM
GI50 (SR leukemia): 0.835 µM
TGI (SR leukemia): 4.57 µM

COc1cc(-n2cnc(-c3ccc(Cl)cc3)c2)cc(OC)c1OC
GI50 (UO-31 renal): 15.6 µM
TGI (UO-31 renal): 40.5 µM
GI50 (UACC-62 melanoma): 62.4 µM
TGI (UACC-62 melanoma): > 100 µM
GI50 (CCRF-CEM leukemia): 21.4 µM
TGI (CCRF-CEM leukemia): 44.8 µM
GI50 (K-562 leukemia): 7.33 µM
TGI (K-562 leukemia): 29.5 µM
GI50 (HS 578T breast): 49.2 µM
TGI (HS 578T breast): > 100 µM
GI50 (DU-145 prostate): > 100 µM
TGI (DU-145 prostate): > 100 µM
GI50 (SK-MEL-28 melanoma): 15.5 µM
TGI (SK-MEL-28 melanoma): 29.7 µM
GI50 (TK-10 renal): 15 µM
TGI (TK-10 renal): 37.4 µM
GI50 (SR leukemia): 25.4 µM
TGI (SR leukemia): 62.2 µM

COC1=C2C[C@@H](C)C[C@@H](OC)[C@@H](O)[C@H](C)/C=C(\C)[C@@H](OC(N)=O)[C@H](OC)/C=C\C=C(/C)C(=O)NC(=CC1=O)C2=O
TGI (CCRF-CEM leukemia): 1.07 µM and 7.4 µM and 4.95 µM
GI50 (HS 578T breast): 1.31 µM and 11.8 µM and 1.25 µM
TGI (HS 578T breast): 17.5 µM and 42 µM and 38.2 µM
TGI (DU-145 prostate): 4.66 µM and 10.3 µM and 14.2 µM

COc1ccc(C(=O)CC(=O)C(=O)Nc2ccc(C)c(C)c2)cc1
TGI (UO-31 renal): > 100 µM
TGI (UACC-62 melanoma): > 100 µM
TGI (CCRF-CEM leukemia): > 74.5 µM
TGI (K-562 leukemia): > 87 µM
TGI (SK-MEL-28 melanoma): > 100 µM
TGI (TK-10 renal): > 100 µM
TGI (SR leukemia): > 100 µM

CCCC(=O)Nc1ccc2c(c1)CN1C(=O)c3ccccc3C1=N2
TGI (UO-31 renal): > 100 µM
TGI (T-47D breast): > 100 µM
TGI (UACC-62 melanoma): > 100 µM
TGI (HS 578T breast): > 100 µM
TGI (DU-145 prostate): > 100 µM
TGI (SK-MEL-28 melanoma): > 100 µM
TGI (TK-10 renal): > 100 µM
TGI (SR leukemia): > 100 µM

COc1ccccc1C(N)c1ccccc1 (centres undefined)
TGI (UO-31 renal): > 100 µM
TGI (UACC-62 melanoma): > 100 µM
TGI (CCRF-CEM leukemia): > 100 µM
TGI (K-562 leukemia): > 100 µM
TGI (SK-MEL-28 melanoma): > 100 µM
TGI (TK-10 renal): > 100 µM

CN(C)C1=NC2=S(SC(Nc3ccccc3)=N2)S1 (centres undefined)
TGI (UO-31 renal): 61.1 µM
TGI (UACC-62 melanoma): > 100 µM
TGI (CCRF-CEM leukemia): > 100 µM
TGI (K-562 leukemia): > 100 µM
TGI (SK-MEL-28 melanoma): 56.2 µM
TGI (TK-10 renal): 85.5 µM
TGI (SR leukemia): > 100 µM

O=C(c1nc2ccc(Cl)cc2[nH]c1=O)C(O)c1ccc2c(c1)OCO2 (centres undefined)
TGI (UO-31 renal): > 100 µM
TGI (UACC-62 melanoma): > 100 µM
TGI (CCRF-CEM leukemia): > 100 µM
TGI (K-562 leukemia): > 100 µM
TGI (SK-MEL-28 melanoma): > 100 µM
TGI (TK-10 renal): > 100 µM

COC(=O)C1=C(c2ccc3c(c2)OCO3)OC(c2ccc3c(c2)OCO3)C1 (centres undefined)
TGI (UO-31 renal): > 100 µM
TGI (UACC-62 melanoma): > 100 µM
TGI (CCRF-CEM leukemia): > 100 µM
TGI (K-562 leukemia): > 100 µM
TGI (SK-MEL-28 melanoma): > 100 µM
TGI (TK-10 renal): > 100 µM
TGI (SR leukemia): > 100 µM

N#CCCSC(=S)C1CCCC1=N (centres undefined)
TGI (UO-31 renal): > 100 µM
TGI (T-47D breast): > 100 µM
TGI (UACC-62 melanoma): > 100 µM
TGI (K-562 leukemia): > 100 µM
TGI (HS 578T breast): > 100 µM
TGI (DU-145 prostate): > 100 µM
TGI (SK-MEL-28 melanoma): > 100 µM
TGI (TK-10 renal): > 100 µM

CCC[CH2][Sn]1([CH2]CCC)[O]CC(CN2CCOCC2)[O]1 (centres undefined)
GI50 (UO-31 renal): 10.1 µM
TGI (UO-31 renal): 21.7 µM
GI50 (UACC-62 melanoma): 1.79 µM
TGI (UACC-62 melanoma): 4.55 µM
GI50 (CCRF-CEM leukemia): 0.995 µM
TGI (CCRF-CEM leukemia): 4.84 µM
GI50 (K-562 leukemia): 2.43 µM
TGI (K-562 leukemia): 9.16 µM
GI50 (SK-MEL-28 melanoma): 2.89 µM
TGI (SK-MEL-28 melanoma): 11.3 µM
GI50 (TK-10 renal): 4.02 µM
TGI (TK-10 renal): 12.1 µM
GI50 (SR leukemia): 1.56 µM
TGI (SR leukemia): 6.13 µM

CCC1CC(C)=CCN1S(=O)(=O)c1ccc(C)cc1 (centres undefined)
TGI (UO-31 renal): 66.6 µM
TGI (UACC-62 melanoma): 57.8 µM
TGI (CCRF-CEM leukemia): 75.7 µM
TGI (K-562 leukemia): > 100 µM
TGI (SR leukemia): 32.7 µM

COc1ccc(NC(=O)CC(=O)N2N=C(N(CCC#N)c3cccc(C)c3)CC2c2ccccc2)cc1 (centres undefined)
TGI (UO-31 renal): > 100 µM
TGI (UACC-62 melanoma): > 100 µM
TGI (CCRF-CEM leukemia): > 100 µM
TGI (K-562 leukemia): > 100 µM
TGI (SK-MEL-28 melanoma): > 100 µM
TGI (SR leukemia): > 100 µM

CCC(c1ccc2cc(O)ccc2c1)C(C)(C)C(=O)O (centres undefined)
TGI (UO-31 renal): > 100 µM
TGI (T-47D breast): > 100 µM
TGI (UACC-62 melanoma): > 100 µM
TGI (K-562 leukemia): > 100 µM
TGI (HS 578T breast): > 100 µM
TGI (DU-145 prostate): > 100 µM
TGI (SK-MEL-28 melanoma): > 100 µM
TGI (TK-10 renal): > 100 µM
TGI (SR leukemia): > 100 µM

COc1ccc(C(=O)C(C(=O)C(=O)NC2C3CC4CC(C3)CC2C4)c2ccc(OC)cc2)cc1 (centres undefined)
TGI (UO-31 renal): > 100 µM
TGI (UACC-62 melanoma): > 100 µM
TGI (CCRF-CEM leukemia): > 100 µM
TGI (K-562 leukemia): > 100 µM
TGI (SK-MEL-28 melanoma): > 100 µM
TGI (TK-10 renal): > 100 µM
TGI (SR leukemia): > 100 µM

COc1cc(Nc2nc3cc(C(F)(F)F)ccc3nc2-c2ccccc2)cc(OC)c1OC
TGI (UO-31 renal): > 100 µM
TGI (UACC-62 melanoma): > 100 µM
TGI (CCRF-CEM leukemia): > 100 µM
TGI (K-562 leukemia): > 100 µM
TGI (SK-MEL-28 melanoma): > 100 µM
TGI (TK-10 renal): 77 µM
TGI (SR leukemia): > 100 µM

CC1=NC(C(C)C)C(=O)O1 (centres undefined)
TGI (UO-31 renal): > 100 µM
TGI (UACC-62 melanoma): > 100 µM
TGI (CCRF-CEM leukemia): > 100 µM
TGI (K-562 leukemia): > 100 µM
TGI (SK-MEL-28 melanoma): > 100 µM
TGI (TK-10 renal): > 100 µM

CCOC(=O)NC(=O)c1cn(CCCOC(=O)NCCCCCCNC(=O)OCCCn2cc(C(=O)NC(=O)OCC)c(=O)[nH]c2=O)c(=O)[nH]c1=O
TGI (UACC-62 melanoma): 38.8 µM
TGI (CCRF-CEM leukemia): > 100 µM
TGI (K-562 leukemia): 39.8 µM
TGI (SK-MEL-28 melanoma): 88.9 µM
TGI (TK-10 renal): 68.5 µM

O=NN/C(=C1\Nc2ccc([N+](=O)[O-])cc2NC1=O)C(O)c1ccc([N+](=O)[O-])cc1 (centres undefined)
TGI (UO-31 renal): > 100 µM
TGI (UACC-62 melanoma): > 100 µM
TGI (CCRF-CEM leukemia): > 100 µM
TGI (K-562 leukemia): > 100 µM
TGI (SK-MEL-28 melanoma): > 100 µM
TGI (SR leukemia): > 100 µM
